{"source": "patent US5364871A", "about": "“New thiazole derivatives, and pharmaceutical composition comprising the same” (Fujisawa Pharmaceutical Co., Ltd., priority 1989, dated 1994)", "key": {"Gastric secretion [1]": {"system": "Gastric secretion", "test": "Test A: Gastric secretion in Heidenhain pouch dogs", "format": "in vivo", "conditions": "total acid output, tetragastrin (10 μg/kg/hr) stimulated; 3.2 mg/kg orally; Beagle dogs", "experimental": "Test A (Gastric secretion in Heidenhain pouch dogs):\nBeagle dogs, weighing about 8-13 kg, were used for the study on gastric secretion. The animals were surgically provided with a vagally denervated Heidenhain pouch. One month or more later, the dogs were fasted overnight. Gastric secretion was stimulated by an intravenous infusion of tetragastrin (10 μg/kg/hr). Gastric samples were collected at 15 min intervals. After its volume was almost constant, test compound (3.2 mg/kg) suspended in 0.1% methyl cellulose solution was administered orally. Acid concentration was determined by titrating an aliquot to pH 7.0 with 0.1N sodium hydroxide solution using automatic titration (Hiranuma RAT-11 Type). Total acid output was calculated by multiplying total volume of gastric samples by acid concentration, and percentage change of total acid output was calculated by comparing with predosing value of test compound."}, "Gastric secretion [2]": {"system": "Gastric secretion", "test": "Test C: Gastric secretion from lumen perfused stomach in anesthetized rats", "format": "in vivo, Male Sprague-Dawley rats", "conditions": "maximal inhibition of acid output, histamine (3 mg/kg/hr) stimulated, 1 mg/kg intravenously", "experimental": "Test C (Gastric secretion from lumen perfused stomach\nMale Sprague-Dawley rats weighing about 250 g were used. Rats were deprived of food but allowed free access to water for 24 hours. The animals were anesthetized with 1.25 g/kg urethane intraperitoneally. The abdomen was opened and the gastric lumen was perfured with saline throughout the experiment. The perfusate was titrated by an antotitrator with 25 mM sodium hydroxide as a titrant. Gastric secretion was stimulated by intravenous infusion with histamine (3 mg/kg/hr). After reaching plateau, test compound (1 mg/kg) was given intravenously. Drug effect was expressed as maximal inhibition by acid output."}, "stress ulcer": {"system": "stress ulcer", "test": "Test B: Inhibition of stress ulcer", "format": "in vivo, male Sprague-Dawley rats", "conditions": "area of ulcers, restraint and water immersion 7 hours; 32 mg/kg orally; rats", "experimental": "Test B (Inhibition of stress ulcer):\nFive male Sprague-Dawley rats, aged 7 weeks and weighing about 200 g were used per group for the study on stress ulcer after the fast for 24 hours. Each animal was immobilized in a restrain cage and immersed to a level of the xiphoid in a water bath kept 22° C. Each of the test compounds (32 mg/kg) suspended in 0.1% methylcellulose solution was administered orally just before the immobilization. Seven hours later, the animals were sacrificed and their stomachs were removed. The stomach was then fixed with 2% formalin. The area of ulcers was measured for each animal, and percentage of inhibition was calculated by comparing the mean area of ulcers (mm^2) in the test animals with that in the control animals."}, "[3]": {"system": "Helicobacter pyloridis 8008", "test": "Test D: Anti-microbial activity (agar dilution method)", "format": "cell-based", "conditions": "72 h, Brucella agar plus 5% lysed horse blood, 37° C., 3 days, 10% CO2", "experimental": "Test D (Anti-microbial activity):\nIn vitro antimicrobial activity was determined by the agar dilution method. Test strain was precultured in Brucella broth containing 5% horse serum at 37° C. for 3 days 10^4 cfu were inoculated with a multipoint replicater onto Brucella agar plus 5% lysed horse blood plate containing serial 2-fold dilutions of each drug at 37° C. for 3 days. Incubation was carried out in an atmosphere of 10% CO2. MIC was read after incubation as the lowest drug concentration that inhibited macroscopic colonial growth."}, "HCl-aspirin ulcer": {"system": "HCl-aspirin ulcer", "test": "Test E: Inhibition of HCl-aspirin ulcer", "format": "in vivo, male Sprague-Dawley rats", "conditions": "length of ulcers; 32 mg/kg orally 30 minutes before aspirin (200 mg/kg in 0.2N HCl); rats", "experimental": "Test E (Inhibition of HCl-aspirin ulcer):\nSeven male Sprague-Dawley rats, aged 6 weeks and weighing about 200 g were used per group for the study on HCl-aspirin ulcer after the fast for 24 hours. Each of the test compounds (32 mg/kg) suspended in 0.1% methylcellulose solution was administered orally 30 minutes before aspirin administration. Aspirin, suspended in 0.1% methylcellulose solution containing 0.2N HCl, was administered orally at a dose of 200 mg/kg/10 ml. One hour later, the animals were sacrificed and their stomachs were removed. The stomach was then fixed with 2% formalin. The length of ulcers was measured for each animal, and percentage of inhibition was calculated by comparing the mean length of ulcers (mm) in the test animals with that in the control animals."}}, "data": [{"smiles": "CC(=O)NCc1cccc(-c2csc(N=C(N)N)n2)n1", "note": "[(a)]", "values": [{"measurement": "Inhibition (%)", "setting": "Gastric secretion [1]", "value": 95, "unit": "%"}]}, {"smiles": "NC(=O)NCc1cccc(-c2csc(N=C(N)N)n2)n1", "note": "[(b)]", "values": [{"measurement": "Inhibition (%)", "setting": "Gastric secretion [2]", "value": 98, "unit": "%"}]}, {"smiles": "NC(=O)NCc1nc(-c2csc(N=C(N)N)n2)cs1", "note": "[(c)]", "values": [{"measurement": "Inhibition (%)", "setting": "Gastric secretion [2]", "value": 97, "unit": "%"}]}, {"smiles": "CCOC(=O)c1nc(-c2csc(N=C(N)N)n2)cs1", "note": "[(d)]", "values": [{"measurement": "Inhibition (%)", "setting": "stress ulcer", "value": 93.9, "unit": "%"}]}, {"smiles": "CCCCNC(N)=Nc1nc(-c2cccc(CNC(C)=O)n2)cs1", "note": "[(e)]", "values": [{"measurement": "MIC", "setting": "[3]", "value": 0.78, "unit": "µg/mL"}, {"measurement": "Inhibition (%)", "setting": "HCl-aspirin ulcer", "value": 98.1, "unit": "%"}]}]}
